Data on 32 molecules can be found in patent US5624961A, “Benzylaminoethoxybenzene derivatives, production thereof and use thereof” (priority 1994, dated 1997).

Molecules are shown by their SMILES. Where a name gives a salt, the structure may show the parent alone.

One data set has as its system α1 -adrenoceptor. As to the kind of experiment: α1-adrenoceptor blocking effect, preparation from the thoracic aorta of rabbit, Magnus method. In kind it is cell-based.
Settings: not given
As for the experimental part: Blocking of α1 -adrenoceptor
The α1 -adrenoceptor blocking effect was determined using a preparation from the thoracic aorta of rabbit, according to the Magnus method and expressed as pA2 value.
Molecule `COc1c(C)c(C)c(O)c(C)c1CN(C)CCOc1cc(C)c(O)cc1C(C)C` [Ex. 1, N-(3-hydroxy-6-methoxy-2,4,5-trimethylbenzyl)-N-methyl-2-(4-hydroxy-2-isopropyl-5-methylphenoxy)ethylamine] yielded a pA2 value of 9.0.
Regarding `Cc1cc(OCCN(C)Cc2c(C)c(O)c(C)c(C)c2OCCO)c(C(C)C)cc1O` [Ex. 2, N-{3-hydroxy-6-(2-hydroxyethoxy)-2,4,5-trimethylbenzyl}-N-methyl-2-(4-hydroxy-2-isopropyl-5-methylphenoxy)ethylamine], the pA2 value worked out at 8.1.
The same measure, in the same setting: the figure for `COc1c(C)c(C)c(O)c(C)c1CNCCOc1cc(C)c(NC(C)=O)cc1C(C)C` [Ex. 3, N-(3-hydroxy-6-methoxy-2,4,5-trimethylbenzyl)-2-(4-acetylamino-2-isopropyl-5-methylphenoxy)ethylamine] is 8.2.
For `CCOc1c(C)c(C)c(O)c(C)c1CN(C)CCOc1cc(C)c(O)cc1C(C)C` [Ex. 4, N-(2-ethoxy-5-hydroxy-3,4,6-trimethylbenzyl)-N-methyl-2-(4-hydroxy-2-isopropyl-5-methylphenoxy)ethylamine], the pA2 value amounted to 8.5.
`CCOc1c(C)c(C)c(OC(C)=O)c(C)c1CN(C)CCOc1cc(C)c(OC(C)=O)cc1C(C)C` [Ex. 5, N-(3-acetoxy-6-ethoxy-2,4,5-trimethylbenzyl)-N-methyl-2-(4-acetoxy-2-isopropyl-5-methylphenoxy)ethylamine] gave a pA2 value of 8.3.
Still for that read-out and setting: the figure for `CCN(CC)CCN(CCOc1cc(C)ccc1C(C)C)Cc1c(C)c(O)c(C)c(C)c1OC` [Ex. 6, N-(2-diethylaminoethyl)-N-(3-hydroxy-6-methoxy-2,4,5-trimethylbenzyl)-2-(2-isopropyl-5-methylphenoxy)ethylamine] is 7.5; for `CCN(CCOc1cc(C)c(Cl)cc1C(C)C)Cc1c(C)c(O)c(C)c(C)c1OC` [Ex. 7, N-ethyl-N-(3-hydroxy-6-methoxy-2,4,5-trimethylbenzyl)-2-(4-chloro-2-isopropyl-5-methylphenoxy)ethylamine] it is 7.7; for `COc1c(C)c(C)c(OC)c(CN(CCOc2cc(C)ccc2C(C)C)C(C)=O)c1C` [Ex. 8, N-{2-(2-isopropyl-5-methylphenoxy)ethyl}-N-(2,5-dimethoxy-3,4,6-trimethylbenzyl)acetamide] it is 7.3.
For `COc1c(C)c(C)c(O)c(C)c1CN(C)CCOc1cc(C)c(C(C)=O)cc1C(C)C` [Ex. 9, N-(3-hydroxy-6-methoxy-2,4,5-trimethylbenzyl)-N-methyl-2-(4-acetyl-2-isopropyl-5-methylphenoxy)ethylamine], the pA2 value is given as 7.5.
Still for that read-out and setting: the figure for `COc1c(C)c(C)c(OC)c(CN(C)CCOc2cc(C)c(NC(C)=O)cc2C(C)C)c1C` [Ex. 10, N-(2,5-dimethoxy-3,4,6-trimethylbenzyl)-N-methyl-2-(4-acetylamino-2-isopropyl-5-methylphenoxy)ethylamine] is 7.4.
The same measure, in the same setting: the value for `COc1c(C)c(C)c(OC)c(CN(C)CCOc2cc(C)c(N)cc2C(C)C)c1C` [Ex. 11, N-(2,5-dimethoxy-3,4,6-trimethylbenzyl)-N-methyl-2-(4-amino-2-isopropyl-5-methylphenoxy)ethylamine] was 8.3; that for `COc1c(C)c(C)c(O)c(C)c1CN(C)CCOc1cc(C)ccc1C(C)C` [Ex. 12, N-(3-hydroxy-6-methoxy-2,4,5-trimethylbenzyl)-N-methyl-2-(2-isopropyl-5-methylphenoxy)ethylamine] was 8.1; that for `COc1c(C)c(C)c(OC(C)C)c(C)c1CN(C)CCOc1cc(C)ccc1C(C)C` [Ex. 14, N-(3-isopropoxy-6-methoxy-2,4,5-trimethylbenzyl)-N-methyl-2-(2-isopropyl-5-methylphenoxy)ethylamine] was 7.6.
On the same count and under the same terms, the figure for `CCOc1c(C)c(C)c(OC)c(CN(C)CCOc2cc(C)ccc2C(C)C)c1C` [Ex. 15, N-(3-ethoxy-6-methoxy-2,4,5-trimethylbenzyl)-N-methyl-2-(2-isopropyl-5-methylphenoxy)ethylamine] is 7.5; for `Cc1ccc(C(C)C)c(OCCN(C)Cc2c(C)c(O)c(C)c(C)c2OCCO)c1` [Ex. 16, N-{3-hydroxy-6-(2-hydroxyethoxy)-2,4,5-trimethylbenzyl}-N-methyl-2-(2-isopropyl-5-methylphenoxy)ethylamine] it is 7.6.
In the case of `C=CCOc1c(C)c(C)c(OC(C)=O)c(C)c1CN(C)CCOc1cc(C)ccc1C(C)C` [Ex. 17, N-{3-acetoxy-6-(2-propenyloxy)-2,4,5-trimethylbenzyl}-N-methyl-2-(2-isopropyl-5-methylphenoxy)ethylamine], the pA2 value was 7.4.
Still for that read-out and setting: the value for `CCN(CCOc1cc(C)c(Cl)cc1C(C)C)Cc1c(C)c(OC(C)=O)c(C)c(C)c1OC(C)C` [Ex. 18, N-(3-acetoxy-6-isopropoxy-2,4,5-trimethylbenzyl)-N-ethyl-2-(4-chloro-2-isopropyl-5-methylphenoxy)ethylamine] was 7.2.
On the same count and under the same terms, the value for `CCOc1c(C)c(C)c(O)c(CNCCOc2cc(C)ccc2C(C)C)c1C` [Ex. 19, N-(3-ethoxy-6-hydroxy-2,4,5-trimethylbenzyl)-2-(2-isopropyl-5-methylphenoxy)ethylamine] was 7.3.
In turn, `CCOc1c(C)c(C)c(OCc2ccccc2)c(CNCCOc2cc(C)ccc2C(C)C)c1C` [Ex. 20, N-(2-benzyloxy-5-ethoxy-3,4,6-trimethylbenzyl)-2-(2-isopropyl-5-methylphenoxy)ethylamine] displayed a pA2 value of 7.2.
`COc1c(C)c(C)c(O)c(C)c1CNCCOc1cc(C)c(O)cc1C(C)C` [Ex. 21, N-(3-hydroxy-6-methoxy-2,4,5-trimethylbenzyl)-2-(4-hydroxy-2-isopropyl-5-methylphenoxy)ethylamine] had a pA2 value of 9.8.
Same read-out and setting: the figure for `COc1c(C)c(C)c(O)c(C)c1CN(CCOc1cc(C)c(O)cc1C(C)C)C(C)C` [Ex. 22, N-(3-hydroxy-6-methoxy-2,4,5-trimethylbenzyl)-N-isopropyl-2-(4-hydroxy-2-isopropyl-5-methylphenoxy)ethylamine] is 7.5; for `COCCN(CCOc1cc(C)c(O)cc1C(C)C)Cc1c(C)c(O)c(C)c(C)c1OC` [Ex. 23, N-(3-hydroxy-6-methoxy-2,4,5-trimethylbenzyl)-N-(2-methoxyethyl)-2-(4-hydroxy-2-isopropyl-5-methylphenoxy)ethylamine] it is 7.6; for `CCCOc1c(C)c(C)c(O)c(C)c1CN(C)CCOc1cc(C)c(O)cc1C(C)C` [Ex. 24, N-(3-hydroxy-6-propoxy-2,4,5-trimethylbenzyl)-N-methyl-2-(4-hydroxy-2-isopropyl-5-methylphenoxy)ethylamine] it is 8.3.
Molecule `CCCCOc1c(C)c(C)c(O)c(C)c1CN(C)CCOc1cc(C)c(O)cc1C(C)C` [Ex. 26, N-(2-butoxy-5-hydroxy-3,4,6-trimethylbenzyl)-N-methyl-2-(4-hydroxy-2-isopropyl-5-methylphenoxy)ethylamine] displayed a pA2 value of 8.3.
The same measure, in the same setting: the value for `CC(=O)Oc1c(C)c(C)c(O)c(CN(C)CCOc2cc(C)c(O)cc2C(C)C)c1C` [Ex. 27, N-(3-acetoxy-6-hydroxy-2,4,5-trimethylbenzyl)-N-methyl-2-(4-hydroxy-2-isopropyl-5-methylphenoxy)ethylamine] was 8.1; that for `COc1c(C)c(C)c(OC)c(CN(C)CCOc2cc(C)c(O)cc2C(C)C)c1C` [Ex. 28, N-(2,5-dimethoxy-3,4,6-trimethylbenzyl)-N-methyl-2-(4-hydroxy-2-isopropyl-5-methylphenoxy)ethylamine] was 9.0; that for `COCCOc1c(C)c(C)c(O)c(C)c1CN(C)CCOc1cc(C)c(O)cc1C(C)C` [Ex. 29, N-{3-hydroxy-6-(2-methoxyethoxy)-2,4,5-trimethylbenzyl}-N-methyl-2-(4-hydroxy-2-isopropyl-5-methylphenoxy)ethylamine] was 8.2.
Molecule `CCOc1c(C)c(C)c(O)c(C)c1CN(CCOc1cc(C)c(O)cc1C(C)C)C(C)C` [Ex. 30, N-(2-ethoxy-5-hydroxy-3,4,6-trimethylbenzyl)-N-isopropyl-2-(4-hydroxy-2-isopropyl-5-methylphenoxy)ethylamine] came in with a pA2 value of 7.2.
On the same count and under the same terms, the value for `CCN(CCOc1cc(C)c(O)cc1C(C)C)Cc1c(C)c(O)c(C)c(C)c1OC` [Ex. 31, N-ethyl-N-(3-hydroxy-6-methoxy-2,4,5-trimethylbenzyl)-2-(4-hydroxy-2-isopropyl-5-methylphenoxy)ethylamine] was 8.6.
As to `COc1cc(C(C)C)c(OCCN(C)Cc2c(C)c(OC)c(C)c(C)c2OC)cc1C` [Ex. 32, N-(2,5-dimethoxy-3,4,6-trimethylbenzyl)-N-methyl-2-(2-isopropyl-4-methoxy-5-methylphenoxy)ethylamine], the pA2 value is recorded as 7.2.
Regarding `CC(=O)Oc1cc(C(C)C)c(OCCN(C)C)cc1C` [moxisylyte hydrochloride, reference compound], the pA2 value is on record as 7.6.
For the molecule `COc1cc2nc(N3CCN(C(=O)c4ccco4)CC3)nc(N)c2cc1OC` [prazosin hydrochloride, reference compound], the pA2 value is listed as 8.6.

The next data set deals with rabbit. As to the kind of experiment: Orthostatic hypotensive effect, tilting of unanesthetized rabbit, orthostatic index (O.I.). Conditions: iv, tilted 90°, without anesthetization. It is filed as in vivo. An excerpt:
Orthostatic hypotensive effect
The orthostatic hypotensive effect was examined by the following method which is in accordance with the method of Journal of Pharmacological Methods, vol. 5, p. 53 (1981). A rabbit was fixed at the dorsal position without anesthetization on an orthostatic hypotension measurement apparatus. Polyethylene catheters were inserted in right femoral artery and right femoral vein, and the catheter inserted in the artery was connected to a pressure transducer. The head of the rabbit was tilted rapidly at an angle of 90° from the horizontal position at 15 min intervals with the heart position as a rotational axis, and brought back to the horizontal position one minute later. The tilting was repeated three times, and after confirmation of occurrence of a constant response, a drug was administered from the polyethylene catheter inserted in the vein. […] [formula] (2) Test results
`COc1c(C)c(C)c(O)c(C)c1CN(C)CCOc1cc(C)c(O)cc1C(C)C` [Ex. 1, N-(3-hydroxy-6-methoxy-2,4,5-trimethylbenzyl)-N-methyl-2-(4-hydroxy-2-isopropyl-5-methylphenoxy)ethylamine]: the “Dose necessary for O.I. value to achieve 90%” value is 56.4 μg/kg, iv.
On to `CCOc1c(C)c(C)c(O)c(C)c1CN(C)CCOc1cc(C)c(O)cc1C(C)C` [Ex. 4, N-(2-ethoxy-5-hydroxy-3,4,6-trimethylbenzyl)-N-methyl-2-(4-hydroxy-2-isopropyl-5-methylphenoxy)ethylamine], for which the “Dose necessary for O.I. value to achieve 90%” value is listed as 61.3 μg/kg, iv.
The same measure, in the same setting: the figure for `COc1c(C)c(C)c(O)c(C)c1CNCCOc1cc(C)c(O)cc1C(C)C` [Ex. 21, N-(3-hydroxy-6-methoxy-2,4,5-trimethylbenzyl)-2-(4-hydroxy-2-isopropyl-5-methylphenoxy)ethylamine] is 32.8 μg/kg, iv.
Still for that read-out and setting: the figure for `COc1c(C)c(C)c(OC)c(CN(C)CCOc2cc(C)c(O)cc2C(C)C)c1C` [Ex. 28, N-(2,5-dimethoxy-3,4,6-trimethylbenzyl)-N-methyl-2-(4-hydroxy-2-isopropyl-5-methylphenoxy)ethylamine] is 40.3 μg/kg, iv.
The same measure, in the same setting: the value for `COc1cc2nc(N3CCN(C(=O)c4ccco4)CC3)nc(N)c2cc1OC` [prazosin hydrochloride, reference compound] was 5.6 μg/kg, iv.
